row,Structure (SMILES),melting point
1,CC(C)c1nnc2ccc(-c3ocnc3-c3c(F)cccc3F)cn12,176 °C
2,NC(=O)c1ccc(NCc2ccc(F)cc2)cn1,166 to 169 °C
3,COc1cc(COc2nc(-c3ccccc3)ncc2C(=O)O)ccc1OCc1nc(-c2ccco2)oc1C,163 to 164 °C
4,CCOC(=O)c1c(Cl)c2cc(C)ccc2n(Cc2ccccc2)c1=O,103 °C
5,CN1CCC(OC(=O)C(C)(c2ccc(O)cc2)C2CCCC2)CC1 (stereo unspecified),128 to 130 °C
6,Cc1cccc(Nc2cc(Nc3cccc(O)c3)ncn2)c1,188 to 189 °C
7,COc1ccc(C(=O)Nc2c[nH]nc2C(=O)NCCC#N)cc1,199 to 200 °C
8,CN(C)CCN1C(=O)C(NC(=O)c2ccc(Cl)cc2)C(C)(C)SC1=S (stereo unspecified),152 to 153 °C
9,CCc1c([N+](=O)[O-])c(C(N)=O)nn1C[C@H]1CCCN1C,111 to 116 °C
10,COCc1cc(O)c2nc(C)n(C)c2c1,219 to 220 °C
11,N#Cc1ccc(Oc2ccc3c(c2)CCNC3=O)nc1,192 to 194 °C
12,CN1CCN(c2ccc(-c3cnc4[nH]cc(C(=O)N[C@@H](C(=O)N5CC(C#N)C5)C5CC5)c4n3)cc2)CC1,178 to 185 °C
13,CCCCCC(O)C1C(=O)NC(C(=O)SCc2ccccc2)(C(O)C2C=CCCC2)C1(C)O (stereo unspecified),123 °C
14,NC(=NCC(F)(F)F)Nc1ccnc(SCCCNC=O)n1,165 to 166 °C
15,CC(C)n1nc(-c2c(-c3ccccc3)nn3ccc(OCc4cccnc4)cc23)ccc1=O,145 to 146 °C
16,COc1ccc(S(=O)(=O)Nc2nc(-c3ccccc3)nn2C)cc1OC,279 to 280 °C
17,N#Cc1cnc2cc(-c3csc(CN4CCOCC4)c3)ccc2c1Nc1ccc(Oc2ccccc2)cc1,221 to 223 °C
18,CCC1(C)CN(c2c(F)c(N)c3c(=O)c(C(=O)O)cn(C4CC4)c3c2OC)CCC1N (stereo unspecified),210 °C
19,O=C(O)c1ccc(C2=NOC(c3cc(Cl)cc(Cl)c3)(C(F)(F)F)C2)cc1F (stereo unspecified),172 to 174 °C
20,COC(=O)Cn1c(C)ccc1C,44 to 46 °C
21,O=[N+]([O-])c1ccc(-c2ccc(-c3cn([C@H]4CN5CCC4CC5)nn3)s2)cn1,160 °C
22,CCOCCn1cc2c(C3C(=O)Nc4ccc(Cl)cc43)nc(NCC(C)O)nc2n1 (stereo unspecified),> 300 °C
23,CCCc1sc(C#N)c2c1C(=O)CC(C)(C)C2,38 to 40 °C
24,COc1ccc(-c2cc3ccccc3[nH]2)cc1NC(=S)Nc1cc(Cl)cc(Cl)c1,199 to 201 °C
25,CC(C)c1ccc(S(=O)(=O)Nc2cnc(I)cc2C(F)(F)F)cc1,156 °C
26,C=CCCOC[C@H]1CC[C@H](c2ccc(C#N)cc2)CC1,12.7 °C

row,Structure (SMILES),melting point
1,Cc1nn(C)c(Cl)c1S(N)(=O)=O,173 °C
2,Cc1c(C(=O)c2ccc(Cl)c(S(N)(=O)=O)c2)[nH]c2ccccc12,205 °C
3,Cc1c(-c2ccc(O)cc2)sc(C=O)c1-c1ccc(O)c(C=O)c1,228 to 230 °C
4,CCCCc1nc2cccc(C(=O)OC)c2n1Cc1ccc(-c2cncnc2-c2nnn[nH]2)cc1,215 to 220 °C
5,COc1ccc(-c2nc3cc(F)ccc3s2)cc1OC(=O)c1ccccc1Br,220 to 223 °C
6,COCCOc1cc2ncnc(C3C(=O)N(C=O)c4ccccc43)c2cc1OC (stereo unspecified),228 to 230 °C
7,COC(=O)c1ccc(C(O)c2cccnc2)cc1 (stereo unspecified),151 °C
8,CSc1nc(=O)n(C)cc1F,154 °C
9,COc1ccc(N2CCN(c3ccc(F)cc3)C(=O)C2)c(-c2ccc(N(C)C)cc2)n1,158 to 164 °C
10,COc1ccc(-c2nc(N3CCOCC3)c3c(C)c(C#N)sc3n2)cc1OC,194 to 196 °C
11,COc1ccc2[nH]cc(-c3cc4c(C(N)=O)ccnc4[nH]3)c2c1,> 320 °C
12,COc1cccc(C(=O)Nc2ccc(OCCN3CCOCC3)c3ccccc23)c1,105 to 107 °C
13,COC[C@H]1CN(c2noc3cc(OS(=O)(=O)C(F)(F)F)ccc23)C(=O)O1,94 °C
14,CC(C)Cn1c(=O)n(C)c(=O)c2c(SCCCN=[N+]=[N-])c(Cc3cccc4ccccc34)sc21,94 to 96 °C
15,CC(C(=O)c1ccccn1)c1ccc(C2CCCCC2)cc1 (stereo unspecified),80 to 81 °C
16,N#Cc1cc(O)c(O)c([N+](=O)[O-])c1,175 to 178 °C
17,CCCNCC(O)c1cccc(F)c1 (stereo unspecified),46 to 47.3 °C
18,CCCn1ncc(C(N)=O)c1N,183 to 185 °C
19,COc1nc2cc([N+](=O)[O-])cc(C=O)c2nc1OC,147 to 149 °C
20,CC(C)(C)N1CN(C(C)(C)C)C(N)=C2C=NN=C21,158 to 161 °C
21,CCCCOC(=O)[C@H]1CN(c2ccc(C3CCSCC3)cc2)C(=O)O1,94 to 96 °C
22,O=C(O)CP(=O)(O)CCNC(=O)c1ccccc1,54 to 57 °C
23,CSc1noc(-c2ccc(O)cc2)c1C#N,194 to 196 °C
24,O=c1ccn(-c2ccc(-c3ccc(=O)[nH]n3)cc2)cc1,339 to 341 °C
25,O=C(O)c1cc2c(=O)n(C3CCCC3)c3ccccc3n2c1,215 to 216 °C

# Source: a melting point compilation (Tetko et al.; mined from patent text by program, amines drawn as free bases though some values may be those of a salt)
